Results as given in PubChem BioAssay AID330 (DTP/NCI, 2004).
Where “and” joins values, the source holds several entries; their conditions need not be identical. Identical values can stand only once. Toxic doses and inconclusive results are not listed.

Test system: P388 leukemia ip, CD2F1 mice, survival T/C
Experiment: NCI In Vivo Anticancer Drug Screen. Data for tumor model P388 Leukemia (intraperitoneal) in CD2F1 (CDF1) mice
Conditions: endpoint: median survival time, higher = longer survival
Outline: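 Mice carrying the transplanted tumor received test compound or vehicle. Survival was recorded in each group, and the value is the treated-group measurement divided by that of the vehicle-treated control group.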

[1] = dose: 50.0 mg/kg/injection, schedule: Q01DX009 (ip), vehicle: saline with Tween-80
[2] = dose: 100.0 mg/kg/injection, schedule: Q01DX009 (ip), vehicle: saline with Tween-80
[3] = dose: 200.0 mg/kg/injection, schedule: Q01DX009 (ip), vehicle: saline with Tween-80
[4] = dose: 50.0 mg/kg/injection, schedule: Q01DX005 (ip), vehicle: Klucel (hydroxypropylcellulose) (HPC)
[5] = dose: 100.0 mg/kg/injection, schedule: Q01DX005 (ip), vehicle: Klucel (hydroxypropylcellulose) (HPC)
[6] = dose: 200.0 mg/kg/injection, schedule: Q01DX005 (ip), vehicle: Klucel (hydroxypropylcellulose) (HPC)
[7] = dose: 50.0 mg/kg/injection, schedule: Q01DX009 (ip), vehicle: saline
[8] = dose: 100.0 mg/kg/injection, schedule: Q01DX009 (ip), vehicle: saline
[9] = dose: 200.0 mg/kg/injection, schedule: Q01DX009 (ip), vehicle: saline
[10] = dose: 400.0 mg/kg/injection, schedule: Q01DX009 (ip), vehicle: saline
[11] = dose: 12.5 mg/kg/injection, schedule: Q01DX009 (ip), vehicle: saline with Tween-80
[12] = dose: 25.0 mg/kg/injection, schedule: Q01DX009 (ip), vehicle: saline with Tween-80
[13] = dose: 60.0 mg/kg/injection, schedule: Q01DX005 (ip), vehicle: saline with Tween-80
[14] = dose: 120.0 mg/kg/injection, schedule: Q01DX005 (ip), vehicle: saline with Tween-80
[15] = dose: 240.0 mg/kg/injection, schedule: Q01DX005 (ip), vehicle: saline with Tween-80

COC1/C=C/OC2(C)Oc3c(C)c(O)c4c(c3C2=O)C(=O)c2cnc(nc2C4=O)/C(C)=C\C=C\C(C)C(O)C(C)C(O)C(C)C(OC(C)=O)C1C (stereo unspecified)
T/C (dose: 25.0 mg/kg/injection, schedule: Q01DX009 (ip), vehicle: other): 93 % of control | T/C (dose: 50.0 mg/kg/injection, schedule: Q01DX009 (ip), vehicle: other): 107 % of control | T/C (dose: 100.0 mg/kg/injection, schedule: Q01DX009 (ip), vehicle: other): 116 % of control

Fc1ccccc1C=NC12CC3CC(CC(C3)C1)C2
T/C [1]: 100 % of control | T/C [2]: 102 % of control | T/C [3]: 108 % of control

CCOC(=O)c1ccc(NC(CCSc2ccccc2)=NC(C)(C)C)cc1
T/C [1]: 103 % of control | T/C [2]: 107 % of control | T/C [3]: 94 % of control

Nc1ncnc2c(C3OC(CO)C(O)C3O)[nH]nc12 (stereo unspecified)
T/C (dose: 1.25 mg/kg/injection, schedule: Q01DX009 (ip), vehicle: saline): 109 % of control | T/C (dose: 2.5 mg/kg/injection, schedule: Q01DX009 (ip), vehicle: saline): 109 % of control | T/C (dose: 5.0 mg/kg/injection, schedule: Q01DX009 (ip), vehicle: saline): 118 % of control | T/C (dose: 5.56 mg/kg/injection, schedule: Q01DX009 (ip), vehicle: saline): 109 % of control | T/C (dose: 6.25 mg/kg/injection, schedule: Q01DX009 (ip), vehicle: saline sonified): 104 % of control | T/C (dose: 8.33 mg/kg/injection, schedule: Q01DX009 (ip), vehicle: saline): 90 % of control | T/C (dose: 12.0 mg/kg/injection, schedule: Q01DX009 (ip), vehicle: saline sonified): 105 % of control | T/C (dose: 12.5 mg/kg/injection, schedule: Q01DX009 (ip), vehicle: saline): 122 % of control | T/C (dose: 18.7 mg/kg/injection, schedule: Q01DX009 (ip), vehicle: saline): 90 % of control

Cc1ccc(C(C(=O)O)(c2ccc(C)c(C)c2)C(O)C(=O)O)cc1C (stereo unspecified)
T/C (dose: 100.0 mg/kg/injection, schedule: Q01DX001 (ip), vehicle: Klucel (hydroxypropylcellulose) (HPC)): 106 % of control | T/C (dose: 200.0 mg/kg/injection, schedule: Q01DX001 (ip), vehicle: Klucel (hydroxypropylcellulose) (HPC)): 106 % of control | T/C (dose: 400.0 mg/kg/injection, schedule: Q01DX001 (ip), vehicle: Klucel (hydroxypropylcellulose) (HPC)): 104 % of control

O=[N+]([O-])c1cc(Br)c2cccc3c2c1CC3
T/C (dose: 25.0 mg/kg/injection, schedule: Q01DX005 (ip), vehicle: Klucel (hydroxypropylcellulose) (HPC)): 91 % of control | T/C [4]: 93 % of control | T/C [5]: 90 % of control

CCOC(=O)c1cnc(NCCCCNc2ncc(C(=O)OCC)c(=O)[nH]2)[nH]c1=O
T/C [4]: 98 % of control | T/C [5]: 90 % of control | T/C [6]: 90 % of control

CCOC(=O)/C(=C(/C)OC(C)=O)c1ccc([N+](=O)[O-])cc1[N+](=O)[O-]
T/C [7]: 89 % of control | T/C [8]: 94 % of control | T/C [9]: 93 % of control

C[N+]1(C)CCC(OC(=O)C(O)(c2ccccc2)C2CCCC2)C1 (stereo unspecified)
T/C (dose: 12.5 mg/kg/injection, schedule: Q01DX009 (ip), vehicle: Klucel (hydroxypropylcellulose) (HPC)): 95 % of control | T/C (dose: 25.0 mg/kg/injection, schedule: Q01DX009 (ip), vehicle: Klucel (hydroxypropylcellulose) (HPC)): 97 % of control | T/C (dose: 25.0 mg/kg/injection, schedule: Q04DX003 (ip), vehicle: saline with Tween-80): 105 % of control | T/C (dose: 50.0 mg/kg/injection, schedule: Q01DX009 (ip), vehicle: Klucel (hydroxypropylcellulose) (HPC)): 89 % of control and 95 % of control | T/C (dose: 50.0 mg/kg/injection, schedule: Q04DX003 (ip), vehicle: saline with Tween-80): 102 % of control | T/C (dose: 100.0 mg/kg/injection, schedule: Q04DX003 (ip), vehicle: saline with Tween-80): 99 % of control

O=C1OCC2C1Cc1cc(O)c(O)cc1C2c1ccc(O)c(O)c1 (stereo unspecified)
T/C (dose: 100.0 mg/kg/injection, schedule: Q01DX009 (ip), vehicle: Klucel (hydroxypropylcellulose) (HPC)): 94 % of control | T/C (dose: 200.0 mg/kg/injection, schedule: Q01DX009 (ip), vehicle: Klucel (hydroxypropylcellulose) (HPC)): 92 % of control | T/C (dose: 400.0 mg/kg/injection, schedule: Q01DX009 (ip), vehicle: Klucel (hydroxypropylcellulose) (HPC)): 111 % of control

C=C(C)C(=O)Nc1ccc2nn(-c3ccccc3O)nc2c1
T/C [7]: 93 % of control | T/C [8]: 86 % of control | T/C [9]: 94 % of control

CN(C)CC(CN(C)C)C(=O)/C=C/c1ccc(O)cc1
T/C (dose: 1.56 mg/kg/injection, schedule: Q01DX005 (ip), vehicle: saline): 105 % of control | T/C (dose: 3.12 mg/kg/injection, schedule: Q01DX005 (ip), vehicle: saline): 114 % of control | T/C (dose: 6.25 mg/kg/injection, schedule: Q01DX005 (ip), vehicle: saline): 114 % of control

CC(C)CC(NC(=O)OC(C)(C)C)C(=O)NC(Cc1c[nH]c2ccccc12)C(=O)NN (stereo unspecified)
T/C (dose: 25.0 mg/kg/injection, schedule: Q01DX009 (ip), vehicle: saline): 87 % of control | T/C [7]: 94 % of control | T/C [8]: 92 % of control | T/C [9]: 92 % of control

COc1ccc(C2c3cc4c(cc3OC(C)(O)C2C)OCO4)cc1 (stereo unspecified)
T/C (dose: 60.0 mg/kg/injection, schedule: Q01DX005 (ip), vehicle: Klucel (hydroxypropylcellulose) (HPC)): 95 % of control | T/C (dose: 120.0 mg/kg/injection, schedule: Q01DX005 (ip), vehicle: Klucel (hydroxypropylcellulose) (HPC)): 98 % of control | T/C (dose: 240.0 mg/kg/injection, schedule: Q01DX005 (ip), vehicle: Klucel (hydroxypropylcellulose) (HPC)): 93 % of control

[N-]=[N+]=C(S(=O)(=O)O)S(=O)(=O)O
T/C [7]: 107 % of control | T/C [8]: 112 % of control | T/C [9]: 107 % of control | T/C [10]: 107 % of control

C=CCOP1(OCC=C)=NP(OCC=C)(OCC=C)=NP(OCC=C)(OCC=C)=N1
T/C (dose: 50.0 mg/kg/injection, schedule: Q01DX005 (ip), vehicle: saline with Tween-80): 96 % of control | T/C (dose: 100.0 mg/kg/injection, schedule: Q01DX005 (ip), vehicle: saline with Tween-80): 100 % of control | T/C (dose: 200.0 mg/kg/injection, schedule: Q01DX005 (ip), vehicle: saline with Tween-80): 102 % of control

CCCCCCCCCCCC1=C(O)C(=O)C=C(O)C1=O
T/C (dose: 6.25 mg/kg/injection, schedule: Q01DX009 (ip), vehicle: saline with Tween-80): 101 % of control | T/C [11]: 106 % of control | T/C [12]: 102 % of control

COc1cccc2c1C(=O)c1c(O)c3c(c(O)c1C2=O)C[C@@](O)(C(C)=O)C[C@@H]3OC1CC(N(C)Cc2ccccc2)C(O)C(C)O1 (stereo partly specified)
T/C (dose: 3.13 mg/kg/injection, schedule: Q04DX003 (ip), vehicle: distilled water + Tween-80): 111 % of control | T/C (dose: 6.25 mg/kg/injection, schedule: Q04DX003 (ip), vehicle: distilled water + Tween-80): 101 % of control | T/C (dose: 12.5 mg/kg/injection, schedule: Q04DX003 (ip), vehicle: distilled water + Tween-80): 118 % of control | T/C (dose: 25.0 mg/kg/injection, schedule: Q04DX003 (ip), vehicle: distilled water + Tween-80): 172 % of control

COc1ccccc1-n1cc[n+](C)c1/C=N/O
T/C [11]: 86 % of control | T/C [12]: 90 % of control | T/C [7]: 99 % of control

O=c1c2ccccc2[nH]c2cc3c(=O)n4ccccc4nc3cc12
T/C (dose: 30.0 mg/kg/injection, schedule: Q01DX005 (ip), vehicle: saline with Tween-80): 94 % of control | T/C [13]: 101 % of control and 91 % of control | T/C [14]: 93 % of control | T/C [15]: 93 % of control

O=C(Oc1ccc[nH]c1=O)C12CC3CC(CC(C3)C1)C2
T/C [7]: 101 % of control | T/C [8]: 100 % of control | T/C [9]: 98 % of control and 94 % of control | T/C [10]: 99 % of control and 93 % of control

Clc1ccccc1C(Nc1nc2ccccc2s1)Nc1nc2ccccc2s1
T/C [4]: 102 % of control | T/C [5]: 99 % of control | T/C [6]: 99 % of control

CCCCC(O)CNc1ccccc1 (stereo unspecified)
T/C [13]: 105 % of control | T/C [14]: 99 % of control | T/C [15]: 90 % of control

CCc1cc(CN2CCN(CCO)CC2)c(O)c(CN2CCN(CCO)CC2)c1
T/C (dose: 60.0 mg/kg/injection, schedule: Q01DX005 (ip), vehicle: saline): 102 % of control | T/C (dose: 120.0 mg/kg/injection, schedule: Q01DX005 (ip), vehicle: saline): 97 % of control | T/C (dose: 240.0 mg/kg/injection, schedule: Q01DX005 (ip), vehicle: saline): 99 % of control
